Test results reported in patent US10450297B2, “Sulfonyl amide derivatives for the treatment of abnormal cell growth” (Pfizer, Inc., priority 2007, dated 2019).

Target: FAK kinase (catalytic construct FAK(410-689)) (Homo sapiens (Human), UniProt Q05397)
Test: FAKcd kinase ELISA (inhibition of poly-glu-tyr phosphorylation by FAK(410-689))
Assay type: biochemical
Settings: 50 μM final ATP

Sequence of FAK kinase (catalytic construct FAK(410-689)) (Q05397 410-689): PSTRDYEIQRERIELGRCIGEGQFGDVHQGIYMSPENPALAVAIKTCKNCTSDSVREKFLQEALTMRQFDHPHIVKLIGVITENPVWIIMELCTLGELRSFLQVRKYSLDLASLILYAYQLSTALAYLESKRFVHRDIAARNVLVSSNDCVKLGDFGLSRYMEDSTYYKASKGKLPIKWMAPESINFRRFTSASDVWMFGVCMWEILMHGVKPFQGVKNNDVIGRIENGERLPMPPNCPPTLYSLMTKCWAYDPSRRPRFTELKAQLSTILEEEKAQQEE

Structure (SMILES) | IC50 [nM]
CN(c1cccc(CNc2nc(Nc3ccc(C(N)=O)cc3)ncc2C(F)(F)F)c1)S(C)(=O)=O [Compound 99, 4-{[4-({3-[methyl(methylsulfonyl)amino]benzyl}amino)-5-(trifluoromethyl)pyrimidin-2-yl]amino}benzamide] | 0.38
CC(=O)Nc1ccc(Nc2ncc(C(F)(F)F)c(NCc3cccnc3N(C)S(C)(=O)=O)n2)cn1 [Compound 102, N-[5-({4-[({2-[methyl(methylsulfonyl)amino]pyridin-3-yl}methyl)amino]-5-(trifluoromethyl)pyrimidin-2-yl}amino)pyridin-2-yl]acetamide] | 2.33
CN(c1ncccc1CNc1nc(Nc2ccc(CC(=O)O)cc2)ncc1C(F)(F)F)S(C)(=O)=O [Compound 105, [4-({4-[({2-[methyl(methylsulfonyl)amino]pyridin-3-yl}methyl)amino]-5-(trifluoromethyl)pyrimidin-2-yl}arnino)phenyl]acetic acid] | 0.94
Cc1cccc(CNc2nc(Nc3ccc(C(N)=O)cc3)ncc2C(F)(F)F)c1N(C)S(C)(=O)=O [Compound 108, 4-{[4-({3-methyl-2-[methyl(methylsulfonyl)amino]benzyl}amino)-5-(trifluoromethyl)pyrimidin-2-yl]amino}benzamide] | 0.6
Cc1ccc(CNc2nc(Nc3ccc(C(N)=O)cc3)ncc2C(F)(F)F)c(N(C)S(C)(=O)=O)c1 [Compound 109, 4-{[4-({4-methyl-2-[methyl(methylsulfonyl)amino]benzyl}amino)-5-(trifluoromethyl)pyrimidin-2-yl]amino}benzamide] | 0.6
Cc1ccc(N(C)S(C)(=O)=O)c(CNc2nc(Nc3ccc(C(N)=O)cc3)ncc2C(F)(F)F)c1 [Compound 110, 4-{[4-({5-methyl-2-[methyl(methylsulfonyl)amino]benzyl}amino)-5-(trifluoromethyl)pyrimidin-2-yl]amino}benzamide] | 0.6
CS(=O)(=O)Nc1ccccc1CNc1nc(Nc2ccc(C(N)=O)cc2)ncc1C(F)(F)F [Compound 111, 4-{[4-({2-[(methylsulfonyl)amino]benzyl}amino)-5-(trifluoromethyl)pyrimidin-2-yl]amino}benzamide] | 0.6
Cc1ccc(CNc2nc(Nc3ccc(C(N)=O)cc3)ncc2C(F)(F)F)c(NS(C)(=O)=O)c1 [Compound 112, 4-{[4-({4-methyl-2-((methylsulfonyl)amino]benzyl}amino)-5-(trifluoromethyl)pyrimidin-2-yl]amino}benzamide] | 0.6
Cc1cccc(NS(C)(=O)=O)c1CNc1nc(Nc2ccc(C(N)=O)cc2)ncc1C(F)(F)F [Compound 113, 4-{[4-({2-methyl-6-[(methylsulfonyl)amino]benzyl}amino)-5-(trifluoromethyl)pyrimidin-2-yl]amino}benzamide] | 0.6
CN(CCO)C(=O)c1cccc(Nc2ncc(C(F)(F)F)c(NCc3cccnc3N(C)S(C)(=O)=O)n2)c1 [Compound 115, N-(2-hydroxyethyl}-N-methyl-3-({4-[({2-[methyl(methylsulfonyl)amino]pyridin-3-yl)methyl)amino]-5-(trifluoromethyl)pyrimidin-2-yl}amino)benzamide] | 0.88
CN(c1ncccc1CNc1nc(Nc2cccc(C(=O)NC[C@H]3CCCO3)c2)ncc1C(F)(F)F)S(C)(=O)=O [Compound 117, 3-({4-[({2-[methyl(methylsulfonyl)amino]pyridin-3-yl}methyl)amino]-5-(trifluoromethyl)pyrimidin-2-yl}amino)-N-[(2R)-tetrahydrofuran-2-ylmethyl]benzamide] | 1.47
CN(c1ncccc1CNc1nc(Nc2cccc(C(=O)NC3CCCOC3)c2)ncc1C(F)(F)F)S(C)(=O)=O (stereo not shown) [Compound 119, 3-({4-[({2-[methyl(methylsulfonyl)amino]pyridin-3-yl}methyl)amlno]-5-(trifluoromethyl)pyrimidin-2-yl}amino)-N-(tetrahydro-2H-pyran-3-yl)benzamide] | 1.14
CN(c1ncccc1CNc1nc(Nc2cccc(C(=O)NC3CCOCC3)c2)ncc1C(F)(F)F)S(C)(=O)=O [Compound 121, 3-({4-[({2-[methyl(methylsulfonyl)amino]pyridin-3-yl}methyl)amino]-5-(trifluoromethyl)pyrimidin-2-yl}amino)-N-(tetrahydro-2H-pyran-4-yl)benzamide] | 0.94
CN(c1ncccc1CNc1nc(Nc2cccc(C(=O)N3CCOCC3)c2)ncc1C(F)(F)F)S(C)(=O)=O [Compound 123, N-methyl-N-[3-({(2-{[3-(morpholin-4-ylcarbonyl)phenyl]amino}-5-(trifluoromethyl)pyrimidin-4-yl]amino}methyl)pyridin-2-yl]methanesulfonamide] | 2.15
CN(c1ncccc1CNc1nc(Nc2cccc(C(=O)N3CCC3)c2)ncc1C(F)(F)F)S(C)(=O)=O [Compound 125, N-[3-({[2-{[3-(azetidin-1-ylcarbonyl)phenyl]amino}-5-(trifluoromethyl)pyrimldin-4-yl]amino}methyl)pyridin-2-yl]-N-methylmethanesulfon-amide] | 1.27
CN(c1ncccc1CNc1nc(Nc2cccc(C(=O)NCC3(O)CCC3)c2)ncc1C(F)(F)F)S(C)(=O)=O [Compound 127, N-[(1-hydroxycyclobutyl)methyl]-3-({4-[({2-[methyl(methylsulfonyl)amino]pyridin-3-yl}methyl)amino]-5-(trifluoromethyl)pyrimidin-2-yl}amino)benzamide] | 2.11
CN(c1ncccc1CNc1nc(Nc2cccc(C(=O)N(CCO)CCO)c2)ncc1C(F)(F)F)S(C)(=O)=O [Compound 129, N,N-bis(2-hydroxyethyl)-3-({4-[({2-[methyl(methylsulfonyl)amino]pyridin-3-yl}methyl)amino]-5-(trifluoromethyl)pyrimidin-2-yl}amino)benzamide] | 0.76
CN(C(=O)c1cccc(Nc2ncc(C(F)(F)F)c(NCc3cccnc3N(C)S(C)(=O)=O)n2)c1)C1CCCC1 [Compound 131, N-cyclopentyl-N-methyl-3-({4-[({2-[methyl(methylsulfonyl)amino]pyridin-3-yl}methyl)amino]-5-(trifluoromethyl)pyrimidin-2-yl}amino)benzamide] | 10.8
CN(C)C(=O)CNC(=O)c1cccc(Nc2ncc(C(F)(F)F)c(NCc3cccnc3N(C)S(C)(=O)=O)n2)c1 [Compound 133, N-[2-(dimethylamino)-2-oxoethyl]-3-({4-[({2-[methyl(methylsulfonyl)amino]pyridin-3-yl}methyl)amino]-5-(trifluoromethyl)pyrimidin-2-yl}amino)benzamide] | 1.95
CN(c1ncccc1CNc1nc(Nc2cccc(C(=O)N3CCC(C)(O)C3)c2)ncc1C(F)(F)F)S(C)(=O)=O (stereo not shown) [Compound 135, N-[3-({(2-({3-[(3-hydroxy-3-methyipyrrolidin-1-yl)carbonyl]phenyl}amino)-5-(trifluoromethyl)pyrimidin-4-yl]amino}methyl)pyridin-2-yl]-N-methylmethane-sulfonamide] | 3.33
CN(C)CCN(C)C(=O)c1cccc(Nc2ncc(C(F)(F)F)c(NCc3cccnc3N(C)S(C)(=O)=O)n2)c1 [Compound 137, N-[2-(dimethylamino)ethyl]-N-methyl-3-({4-[({2-[methyl(methylsulfonyl)amino]pyridin-3-yl}methyl)amino)-5-(trifluoromethyl)pyrimidin-2-yl}amino)benzamide] | 4.33
CN(c1ncccc1CNc1nc(Nc2cccc(C(=O)NCc3ccccn3)c2)ncc1C(F)(F)F)S(C)(=O)=O [Compound 139, 3-({4-[({2-[methyl(methylsulfonyl)amino]pyridin-3-yl}methyl)amino]-5-(trifluoromethyl)pyrimidin-2-yl}amino)-N-(pyridin-2-ylmethyl)benzamide] | 1.91
CN(c1ncccc1CNc1nc(Nc2cccc(C(=O)NCC3(C)COC3)c2)ncc1C(F)(F)F)S(C)(=O)=O [Compound 141, 3-({4-[({2-[methyl(methylsulfonyl)amino]pyridin-3-yl}methyl)amino]-5-(trifluoromethyl)pyrimidin-2-yl}amino)-N-[(3-methyloxetan-3-yl)methyl]benzamide] | 0.84
C[C@H]1COCCN1C(=O)c1cccc(Nc2ncc(C(F)(F)F)c(NCc3cccnc3N(C)S(C)(=O)=O)n2)c1 [Compound 143, N-methyl-N-{3-[({2-[(3-{[(3S)-3-methylmorpholin-4-yl]carbonyl}phenyl)amino]-5-(trifluoromethyl)pyrimidin-4-yl}amino)methyl]pyridin-2-yl}methanesulfonamide] | 2.4
CN(C)CCCNC(=O)c1cccc(Nc2ncc(C(F)(F)F)c(NCc3cccnc3N(C)S(C)(=O)=O)n2)c1 [Compound 145, N-[3-(dimethylamino)propyl]-3-({4-(({2-[methyl(methylsulfonyl)amino]pyridin-3-yl}methyl)amino]-5-(trifluoromethyl)pyrimidin-2-yl}amino)benzamide] | 2.54
CN(c1ncccc1CNc1nc(Nc2cccc(C(=O)N3CCCC3CO)c2)ncc1C(F)(F)F)S(C)(=O)=O (stereo not shown) [Compound 147, N-{3-[({2-[(3-{[2-(hydroxymethyl)pyrrolidin-1-yl]carbonyl}phenyl)amino]-5-(trifluoromethyl)pyrimidin-4-yl}amino)methyl]pyridin-2-yl}-N-methylmethane-sulfonamide] | 4.74
COCCCNC(=O)c1cccc(Nc2ncc(C(F)(F)F)c(NCc3cccnc3N(C)S(C)(=O)=O)n2)c1 [Compound 149, N-(3-methoxypropyl)-3-({4-[({2-[methyl(methylsulfonyl)amino]pyridin-3-yl}methyl)amino]-5-(trifluoromethyl)pyrimidin-2-yl}amino)benzamide] | 1.51
CC(NC(=O)c1cccc(Nc2ncc(C(F)(F)F)c(NCc3cccnc3N(C)S(C)(=O)=O)n2)c1)C1CC1 (stereo not shown) [Compound 151, N-(1-cyclopropylethyl)-3-({4-[({2-[methyl(methylsulfonyl)-amino]pyridin-3-yl}methyl)amino]-5-(trifluoromethyl)pyrimidin-2-yl}amino)benzamide] | 5.24
